Laboratory results from US8629164B2, “Inhibitors of NF-κB” (Profectus Biosciences, Inc., priority 2009, dated 2014).

Assays:
p52 = target: T1, p52 (Homo sapiens, UniProt Q00653); assay: TransAM NF-κB Family DNA Binding ELISA, p52; settings: for IC50: p52 binding IC50 (uM), cells without % sign; for inhibition at 5 µM: read-out: p52 binding % inhibit. at 5 uM, at 5 uM
T1 sequence (Q00653 1-454 limits assumed): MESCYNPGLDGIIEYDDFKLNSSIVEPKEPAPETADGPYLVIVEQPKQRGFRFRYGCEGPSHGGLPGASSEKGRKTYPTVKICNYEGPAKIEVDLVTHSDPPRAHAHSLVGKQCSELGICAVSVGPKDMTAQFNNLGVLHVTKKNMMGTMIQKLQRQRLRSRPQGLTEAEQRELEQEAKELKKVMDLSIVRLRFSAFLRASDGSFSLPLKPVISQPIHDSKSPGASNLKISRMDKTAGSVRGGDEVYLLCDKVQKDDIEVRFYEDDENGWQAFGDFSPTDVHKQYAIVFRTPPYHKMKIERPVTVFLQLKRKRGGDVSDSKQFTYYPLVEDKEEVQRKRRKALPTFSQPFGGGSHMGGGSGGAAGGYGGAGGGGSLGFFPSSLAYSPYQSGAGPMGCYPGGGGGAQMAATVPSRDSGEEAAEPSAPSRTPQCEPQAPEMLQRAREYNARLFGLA

NF-κB [1] = assay: 293-cell pNF-κB-luc reporter assay, TNF-α induced; format: cell-based; settings: HEK293 cells, NF-κB driven luciferase expression; read-out: 293/NFkB-luc EC50
Description: (§1) Inhibition of NF-κB in cells by the compound of Example 1. Two reporter cell assays were used to determine the ability of the compound of Example 1 to inhibit NE-KB driven transcription. The first assay was a 293-cell based assay with a stably integrated pNF-κB-luc reporter plasmid containing 3 NF-κB promoter elements. The second assay was a 293-cell based assay with a stably integrated pTRH1-NF-κB-dscGFP reporter containing 4 NF-κB promoter elements. Cells were treated with 0, 0.2, 1, 10, 20 and 40 μM of the compound of Example 1 for 2 hours then were induced with 20 ng/ml TNF-α for 18 hours. Following the induction, luminescence or fluorescence was quantified using a Beckman-Coulter 2300 plate reader. […] These values represent the median value generated from three independent experiments±the standard error. As a control, 0.5% DMSO treated and untreated cells were compared to verify that the Example 1 carrier had no effect on the expression of luciferase or in the readout of the assay. There was a slight decrease in the output from the assay in the DMSO treated population although it was not statistically significant. As a result of the controls, the decrease in activity in the drug treated samples was compared to the DMSO control sample.

NF-κB [2] = assay: 293-cell pTRH1-NF-κB-dscGFP reporter assay, TNF-α induced; format: cell-based; settings: Homo sapiens, HEK293, HEK293 cells, NF-κB driven GFP expression; read-out: NF-kB/293/GFP EC50
Description: as §1

c-Rel = target: T2, c-Rel (Homo sapiens, UniProt Q04864); assay: TransAM NF-κB Family DNA Binding ELISA, c-Rel; settings: for inhibition at 5 µM: read-out: c-Rel binding % inhibit. at 5 uM, at 5 uM; for IC50: c-Rel binding IC50 (uM), cells without % sign
T2 sequence (Q04864 2-619 limits assumed): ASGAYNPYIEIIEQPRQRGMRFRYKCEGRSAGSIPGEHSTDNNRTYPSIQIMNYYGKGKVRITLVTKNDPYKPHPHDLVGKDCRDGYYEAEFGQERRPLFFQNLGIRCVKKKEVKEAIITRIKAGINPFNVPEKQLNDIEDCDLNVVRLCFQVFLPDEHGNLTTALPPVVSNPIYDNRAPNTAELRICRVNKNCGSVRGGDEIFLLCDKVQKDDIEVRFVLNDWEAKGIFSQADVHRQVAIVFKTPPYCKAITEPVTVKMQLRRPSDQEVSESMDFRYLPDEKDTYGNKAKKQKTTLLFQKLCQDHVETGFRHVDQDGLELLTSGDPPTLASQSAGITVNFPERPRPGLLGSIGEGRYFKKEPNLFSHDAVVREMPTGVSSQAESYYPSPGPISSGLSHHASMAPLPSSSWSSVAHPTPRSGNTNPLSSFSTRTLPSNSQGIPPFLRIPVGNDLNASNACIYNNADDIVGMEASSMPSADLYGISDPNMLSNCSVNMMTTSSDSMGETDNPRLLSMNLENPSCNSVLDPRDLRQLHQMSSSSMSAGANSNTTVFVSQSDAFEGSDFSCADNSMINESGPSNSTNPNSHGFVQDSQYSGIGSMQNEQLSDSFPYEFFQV
Description: (§2) Treated samples were then transferred to 30 μL Complete Binding Buffer (with DTT) in microplate wells pre-coated with the NF-κB consensus oligonucleotide. […] The plate was incubated for 1 hour at room temperature with gentle shaking and then washed 3 times with 200 μL 1× Wash Buffer. NF-κB p65, p50, p52, RelB, or c-Rel subunits bound to the plate were detected with 100 μL of the primary antibody (diluted 1:1000 in 1× Antibody Buffer) specific for that subunit. The plate was incubated for 1 hour at room temperature and then washed 3 times with 200 μL 1× Wash Buffer. Next, 100 μL of a HRP conjugated goat anti-rabbit antibody (diluted 1:1,000 in 1× Antibody Buffer) was added to each well. The plate was incubated for 1 hour at room temperature and then washed 4 times with 200 μL 1× Wash Buffer. 100 μL of room temperature Developing Solution was added to each well. The reaction was allowed to develop for 2-10 minutes until a medium dark blue color developed (depending on the subunit activity in the lot of extract or lot of recombinant protein used) and then the reaction was stopped with 100 μL Stop Solution yielding a yellow color. Absorbance was recorded using a Becton-Dickinson DTX 880 Multimode Detector at 450 nm with a reference wavelength subtracted at 620 nm.

[3] = test system: IL-6 release from RAW264.7 cells; assay: IL-6 release from LPS stimulated RAW264.7 cells; format: cell-based, mouse
Description: Specifically, A and B show the effects of the compound of Example 1 on soluble PGE2 and Il-6 secretion from RAW264.7 cells stimulated by 1 μg/mL of LPS. The cells were treated with the indicated concentrations of the compound of Example 1 for 2 hours, and then LPS was added and incubation continued for 4 hours. […]

p65 (RelA) = p65 (RelA) (Homo sapiens, UniProt Q04206); assay: TransAM NF-κB Family DNA Binding ELISA, p65; settings: p65 binding IC50 (uM), binding to NF-κB sites
Chain of p65 (RelA) (Q04206 whole entry): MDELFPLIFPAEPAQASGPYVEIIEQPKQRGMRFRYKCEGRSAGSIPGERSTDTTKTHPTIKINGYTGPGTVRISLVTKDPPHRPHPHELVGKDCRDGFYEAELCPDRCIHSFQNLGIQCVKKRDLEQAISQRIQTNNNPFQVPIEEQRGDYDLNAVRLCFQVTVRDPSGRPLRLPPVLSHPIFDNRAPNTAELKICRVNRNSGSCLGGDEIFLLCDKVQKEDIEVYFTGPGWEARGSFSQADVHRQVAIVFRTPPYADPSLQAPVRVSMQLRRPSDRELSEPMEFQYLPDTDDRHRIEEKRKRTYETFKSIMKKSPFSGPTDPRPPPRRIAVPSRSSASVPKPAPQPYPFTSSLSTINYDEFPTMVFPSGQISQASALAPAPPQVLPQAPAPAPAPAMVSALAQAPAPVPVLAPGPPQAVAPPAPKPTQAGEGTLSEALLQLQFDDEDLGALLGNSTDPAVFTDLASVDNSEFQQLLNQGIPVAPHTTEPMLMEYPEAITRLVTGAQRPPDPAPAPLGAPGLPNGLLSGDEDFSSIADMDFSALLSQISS
Description: as §2

RelB = target: T3, RelB (Homo sapiens, UniProt Q01201); assay: TransAM NF-κB Family DNA Binding ELISA, RelB; settings: for inhibition at 5 µM: read-out: RelB binding % inhibit. at 5 uM, at 5 uM; for IC50: RelB binding IC50 (uM), cells without % sign
T3 sequence (Q01201 1-579): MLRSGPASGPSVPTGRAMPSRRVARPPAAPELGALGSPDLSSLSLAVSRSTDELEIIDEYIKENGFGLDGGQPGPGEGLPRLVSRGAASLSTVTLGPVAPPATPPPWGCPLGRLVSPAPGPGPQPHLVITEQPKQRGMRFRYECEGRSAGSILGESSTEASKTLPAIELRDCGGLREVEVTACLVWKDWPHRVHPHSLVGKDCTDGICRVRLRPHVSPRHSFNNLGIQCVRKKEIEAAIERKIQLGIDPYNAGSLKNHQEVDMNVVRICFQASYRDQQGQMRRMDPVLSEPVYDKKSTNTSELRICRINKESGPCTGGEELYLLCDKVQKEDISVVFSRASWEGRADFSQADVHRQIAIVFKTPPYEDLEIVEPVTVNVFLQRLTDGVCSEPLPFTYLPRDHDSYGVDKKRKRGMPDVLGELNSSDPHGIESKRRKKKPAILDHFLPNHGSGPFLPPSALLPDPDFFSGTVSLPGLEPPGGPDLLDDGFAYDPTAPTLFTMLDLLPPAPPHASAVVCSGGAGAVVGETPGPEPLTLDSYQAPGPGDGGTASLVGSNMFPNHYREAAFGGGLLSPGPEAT
T3 sequence (Q00653 1-454 partner limits assumed): T1 sequence (Q00653 1-454 limits assumed)

[4] = test system: PGE2 release from RAW264.7 cells; assay: PGE2 release from LPS stimulated RAW264.7 cells; format: cell-based, mouse; settings: Mus musculus, RAW264.7, RAW 264.7 cells
Description: Specifically, A and B show the effects of the compound of Example 1 on soluble PGE2 and Il-6 secretion from RAW264.7 cells stimulated by 1 μg/mL of LPS. The cells were treated with the indicated concentrations of the compound of Example 1 for 2 hours, and then LPS was added and incubation continued for 4 hours.
LPS stimulation induces the expression of COX-2 the enzyme responsible for prostaglandin E2.

p50 = target: T4, p50 (Homo sapiens, UniProt P19838); assay: TransAM NF-κB Family DNA Binding ELISA, p50; settings: for IC50: p50 binding IC50 (uM), cells without % sign; for inhibition at 5 µM: read-out: p50 binding % inhibit. at 5 uM
T4 sequence (P19838 1-433 limits assumed): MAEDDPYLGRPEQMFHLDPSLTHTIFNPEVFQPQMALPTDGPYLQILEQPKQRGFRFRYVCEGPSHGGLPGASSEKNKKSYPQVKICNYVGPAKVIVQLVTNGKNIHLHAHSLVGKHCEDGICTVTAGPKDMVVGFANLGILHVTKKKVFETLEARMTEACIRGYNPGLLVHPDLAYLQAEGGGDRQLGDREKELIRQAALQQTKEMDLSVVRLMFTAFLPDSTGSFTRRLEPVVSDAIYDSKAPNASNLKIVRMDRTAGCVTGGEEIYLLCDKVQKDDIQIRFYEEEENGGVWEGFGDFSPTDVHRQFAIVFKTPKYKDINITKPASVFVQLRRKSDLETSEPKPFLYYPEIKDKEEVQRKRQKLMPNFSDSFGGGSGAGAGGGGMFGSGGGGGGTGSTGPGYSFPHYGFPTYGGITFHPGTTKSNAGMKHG
Description: as §2

[5] = Mus musculus, RAW264.7, RAW 264.7 cells

| IC50 (p52) | EC50 (NF-κB [1]) | EC50 (NF-κB [2]) | inhibition at 5 µM (c-Rel) | EC50 [3, 5] | IC50 (p65 (RelA)) | inhibition at 5 µM (RelB) | EC50 [4] | IC50 (p50) | inhibition at 5 µM (p52) | inhibition at 5 µM (p50) | EC50 ([3]; RAW 264.7 cells) | IC50 (c-Rel) | IC50 (RelB) | Structure (SMILES) |
| --- | --- | --- | --- | --- | --- | --- | --- | --- | --- | --- | --- | --- | --- | --- |
| > 481 µM | > 38 µM | > 38 µM | 12% | 0.43 µM | 230 µM | 0% | 6.5 µM | > 481 µM |  |  |  |  |  | O=C(NC1=CC(=O)C2OC2C1O)c1cnc2ccc(Cl)cc2c1O (racemic) [Example 5, (±)-6-chloro-4-hydroxy-quinoline-3-carboxylic acid-(2-hydroxy-5-oxo-7-oxa-bicyclo[4.1.0]hept-3-en-3-yl)-amide] |
|  | 14 µM | 20 µM | 44% | 7.4 µM | 7.2 µM | 22% | 23.6 µM |  | 22% | 11% |  |  |  | O=C(NC1=CC(=O)C2OC2C1O)c1nc2ccccc2nc1O (racemic) [Example 9, (±)-3-hydroxy-quinoxaline-2-carboxylic acid (2-hydroxy-5-oxo-7-oxa-bicyclo[4.1.0]hept-3-en-3-yl)-amide] |
|  | 19 µM | 4.5 µM | 54% | < 0.24 µM | 2.8 µM | 27% | 1.1 µM |  | 11% | 6% |  |  |  | Cc1ccc(C(=O)NC2=CC(=O)C3OC3C2O)c(O)n1 (racemic) [Example 10, (±)-2-hydroxy-N-(2-hydroxy-5-oxo-7-oxa-bicyclo[4.1.0]hept-3-en-3-yl)-6-methyl-nicotinamide] |
|  | 9.6 µM | 7.7 µM | 40% |  | 5.8 µM | 29% |  |  | 18% | 1% | 1.4 µM |  |  | COc1cccnc1C(=O)NC1=CC(=O)C2OC2C1O (racemic) [Example 20, (±)-3-methoxy-pyridine-2-carboxylic acid (2-hydroxy-5-oxo-7-oxa-bicyclo[4.1.0]hept-3-en-3-yl)-amide] |
| 9.6 µM | 2.7 µM | 4.2 µM |  | 0.19 µM | 3 µM |  |  | 20 µM |  |  |  | 4.5 µM | 3 µM | O=C(NC1=CC(=O)C2OC2C1=O)c1cc2ccccc2nc1O (racemic) [Example 28, (±)-N-(2,5-dioxo-7-oxabicyclo[4.1.0]hept-3-en-3-yl)-2-hydroxyquinoline-3-carboxamide] |
|  | 18 µM | 3.4 µM | 27% | 0.9 µM | 3.3 µM | 13% | 6.2 µM |  | 7% | 0% |  |  |  | O=C(NC1=CC(=O)C2OC2C1O)c1cnc2c(C(F)(F)F)cccc2c1O (racemic) [Example 6, (±)-4-hydroxy-8-trifluoromethyl-quinoline-3-carboxylic acid-(2-hydroxy-5-oxo-7-oxa-bicyclo[4.1.0]hept-3-en-3-yl)-amide] |
|  | 15 µM | 3.2 µM | 63% | 0.73 µM | 3.6 µM | 32% | 6.8 µM |  | 16% | 19% |  |  |  | O=C(NC1=CC(=O)C2OC2C1O)c1cc(Cl)cnc1O (racemic) [Example 7, (±)-5-chloro-2-hydroxy-N-(2-hydroxy-5-oxo-7-oxa-bicyclo[4.1.0]hept-3-en-3-yl)-nicotinamide] |
| 4.7 µM | 4.1 µM | 0.84 µM |  | 0.13 µM | 1.1 µM |  |  | 1.2 µM |  |  |  | 0.49 µM | 0.65 µM | COc1nc2ccccc2cc1C(=O)NC1=CC(=O)C2OC2C1O (racemic) [Example 25, (±)-2-methoxy-quinoline-3-carboxylic acid (2-hydroxy-5-oxo-7-oxa-bicyclo[4.1.0]hept-3-en-3-yl)-amide] |
|  | 37 µM | 10 µM | 46% | 2.2 µM |  | 21% | 26.2 µM |  | 17% | 16% |  |  |  | O=C(NC1=CC(=O)C2OC2C1O)c1cnc(-c2ccccc2)nc1O (racemic) [Example 8, (±)-4-hydroxy-2-phenylpyrimidine-5-carboxylic acid (2-hydroxy-5-oxo-7-oxa-bicyclo[4.1.0]hept-3-en-3-yl)-amide] |
